Data: patent US11230541B2, “Heterocyclic compound” (Takeda Pharmaceutical Company Limited, priority 2017, dated 2022)

Target: T1, NMDA receptor composed of four subunits including 2 sets of heterodimers of NR1 and NR2B (Homo sapiens, UniProt Q13224)
T1 construct: host or cells: HEK293 (tetracycline-induced expression)
T1 sequence (Q13224 27-1484, other chains not shown): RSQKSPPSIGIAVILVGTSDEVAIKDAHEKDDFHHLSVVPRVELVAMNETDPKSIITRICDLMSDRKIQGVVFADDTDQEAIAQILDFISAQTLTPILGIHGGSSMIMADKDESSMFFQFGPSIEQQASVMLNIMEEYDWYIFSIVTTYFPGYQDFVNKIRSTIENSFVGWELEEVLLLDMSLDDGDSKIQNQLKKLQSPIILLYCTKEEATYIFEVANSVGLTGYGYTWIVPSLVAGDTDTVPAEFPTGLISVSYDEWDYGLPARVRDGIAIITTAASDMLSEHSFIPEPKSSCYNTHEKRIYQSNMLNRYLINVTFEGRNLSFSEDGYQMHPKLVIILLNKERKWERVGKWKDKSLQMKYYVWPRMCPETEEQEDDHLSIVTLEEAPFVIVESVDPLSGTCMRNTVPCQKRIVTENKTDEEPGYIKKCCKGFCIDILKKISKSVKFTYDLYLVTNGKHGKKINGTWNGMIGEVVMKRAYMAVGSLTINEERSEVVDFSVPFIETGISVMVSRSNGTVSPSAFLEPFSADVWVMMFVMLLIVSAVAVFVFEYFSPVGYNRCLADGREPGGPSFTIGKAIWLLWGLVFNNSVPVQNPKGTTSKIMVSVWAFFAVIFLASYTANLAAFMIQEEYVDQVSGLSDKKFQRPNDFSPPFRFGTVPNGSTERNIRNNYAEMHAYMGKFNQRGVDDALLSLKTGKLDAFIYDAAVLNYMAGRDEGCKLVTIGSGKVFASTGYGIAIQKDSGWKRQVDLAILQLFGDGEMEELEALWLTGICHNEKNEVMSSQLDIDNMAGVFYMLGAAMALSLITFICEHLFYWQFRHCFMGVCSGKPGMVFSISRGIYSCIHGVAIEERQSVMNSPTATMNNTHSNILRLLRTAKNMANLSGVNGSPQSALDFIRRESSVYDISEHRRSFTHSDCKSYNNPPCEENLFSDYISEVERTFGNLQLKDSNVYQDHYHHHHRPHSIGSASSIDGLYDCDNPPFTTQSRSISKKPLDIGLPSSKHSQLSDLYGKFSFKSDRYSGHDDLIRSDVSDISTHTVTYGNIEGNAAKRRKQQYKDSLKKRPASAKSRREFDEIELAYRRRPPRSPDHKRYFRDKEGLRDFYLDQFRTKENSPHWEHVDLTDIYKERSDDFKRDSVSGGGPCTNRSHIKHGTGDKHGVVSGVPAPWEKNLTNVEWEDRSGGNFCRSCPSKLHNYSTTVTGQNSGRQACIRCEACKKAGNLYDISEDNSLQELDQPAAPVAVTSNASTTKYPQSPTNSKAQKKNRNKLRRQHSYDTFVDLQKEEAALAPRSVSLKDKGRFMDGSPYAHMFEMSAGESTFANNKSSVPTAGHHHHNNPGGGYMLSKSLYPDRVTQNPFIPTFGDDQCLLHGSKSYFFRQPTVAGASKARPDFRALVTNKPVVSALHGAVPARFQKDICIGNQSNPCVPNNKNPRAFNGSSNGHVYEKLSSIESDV
Assay: NR2B Ca2+ influx assay (FLIPR, Fluo-4) in HEK293 cells expressing human GRIN1 and GRIN2B
Type: cell-based
Details: HEK293, 10 μM final compound concentration, glutamic acid/glycine-induced Ca2+ influx, read-out: inhibitory rate (10 μM compound concentration)
How it was run: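 Tetracycline-induced (2 h) HEK293 cells expressing human GRIN1/GRIN2B, Fluo-4-loaded, were preincubated 15 min at room temperature with compound at 10 μM final. FLIPR recorded Ca2+ influx every 3 s for 5 min after glutamate/glycine addition (30 μM in added buffer); inhibition from cumulative fluorescence relative to agonist-free wells.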
In the case of `COc1ccc2ncn(C)c2c1CNC(=O)Nc1ccccc1` [Example 255, 1-((6-methoxy-1-methyl-1H-benzimidazol-7-yl)methyl)-3-phenylurea], the inhibition at 10 µM was 67%.
Compound `COc1ccc2ncn(C)c2c1CNC(=O)Nc1ccc(C)cc1` [Example 256, 1-((6-methoxy-1-methyl-1H-benzimidazol-7-yl)methyl)-3-(4-methylphenyl)urea] has an inhibition at 10 µM of 90%.
With `COc1ccc2ncn(C)c2c1CNC(=O)Nc1ccc(Cl)cc1` [Example 257, 1-(4-chlorophenyl)-3-((6-methoxy-1-methyl-1H-benzimidazol-7-yl)methyl)urea] the inhibition at 10 µM was 90%.
For `COc1ccc2ncn(C)c2c1CNC(=O)Nc1ccc(F)c(F)c1` [Example 258, 1-(3,4-difluorophenyl)-3-((6-methoxy-1-methyl-1H-benzimidazol-7-yl)methyl)urea], the inhibition at 10 µM was 85%.
With `COc1ccc(NC(=O)NCc2c(OC)ccc3ncn(C)c23)c(F)c1F` [Example 259, 1-(2,3-difluoro-4-methoxyphenyl)-3-((6-methoxy-1-methyl-1H-benzimidazol-7-yl)methyl)urea] the inhibition at 10 µM was 87%.
With `COc1ccc2ncn(C)c2c1CNC(=O)Nc1ccc(C(F)(F)F)cc1F` [Example 260, 1-(2-fluoro-4-(trifluoromethyl)-phenyl)-3-((6-methoxy-1-methyl-1H-benzimidazol-7-yl)methyl)urea] the inhibition at 10 µM was 92%.
For `COc1ccc2ncn(C)c2c1CNC(=O)Nc1ccc(C(F)(F)F)c(F)c1` [Example 261, 1-(3-fluoro-4-(trifluoromethyl)-phenyl)-3-{(6-methoxy-1-methyl-1H-benzimidazol-7-yl)methyl)urea], the inhibition at 10 µM was 92%.
Work on `COc1ccc2ncn(C)c2c1CNC(=O)Nc1ccc(C(F)(F)F)cc1` [Example 262, 1-((6-methoxy-1-methyl-1H-benzimidazol-7-yl)methyl)-3-(4-(trifluoromethyl)-phenyl)urea] yielded an inhibition at 10 µM of 91%.
`Cc1ccc2[nH]nnc2c1CNC(=O)c1ccc(OC(F)F)c(F)c1` [Example 263, 4-(difluoromethoxy)-3-fluoro-N-((5-methyl-1H-benzotriazol-4-yl)methyl)benzamide] showed an inhibition at 10 µM of 98%.
Compound `COc1ccc(C(=O)NCc2c(C)ccc3[nH]nnc23)cc1` [Example 264, 4-methoxy-N-((5-methyl-1H-benzotriazol-4-yl)methyl)benzamide] has an inhibition at 10 µM of 83%.
`Cc1ccc2[nH]nnc2c1CNC(=O)c1ccc(OC(F)F)cc1` [Example 265, 4-(difluoromethoxy)-N-((5-methyl-1H-benzotriazol-4-yl)methyl)benzamide] gave an inhibition at 10 µM of 97%.
Work on `COc1ccc(NC(=O)NCc2c(OC)ccc3ncn(C)c23)cc1` [Example 266, 1-((6-methoxy-1-methyl-lH-benzimidazol-7-yl)methyl)-3-(4-methoxyphenyl)urea] yielded an inhibition at 10 µM of 58%.
With `COc1ccc2ncn(C)c2c1CNC(=O)Nc1ccc(F)c(C(F)(F)F)c1` [Example 267, 1-(4-fluoro-3-(trifluoromethyl)-phenyl)-3-((6-methoxy-1-methyl-lH-benzimidazol-7-yl)methyl)urea] the inhibition at 10 µM was 74%.
`Cc1ccc2[nH]nnc2c1CNC(=O)c1cnc(OC(F)F)c(F)c1` [Example 268, 6-(difluoromethoxy)-5-fluoro-N-((5-methyl-1H-benzotriazol-4-y1)methyl)nicotinamide] gave an inhibition at 10 µM of 97%.
With `Cc1n[nH]c2cccc(CNC(=O)c3ccc(OC(F)(F)F)c(F)c3)c12` [Example 269, 3-fluoro-N-((3-methyl-1H-indazol-4-yl)methyl)-4-(trifluoromethoxy)-benzamide] the inhibition at 10 µM was 87%.
For `COc1c(F)cc(C(=O)NCc2cccc3[nH]nc(C)c23)cc1F` [Example 270, 3,5-difluoro-4-methoxy-N-((3-methyl-1H-indazol-4-yl)methyl)benzamide], the inhibition at 10 µM was 67%.
With `Cc1n[nH]c2cccc(CNC(=O)c3cnc(OC(F)F)c(F)c3)c12` [Example 271, 6-(difluoromethoxy)-5-fluoro-N-((3-methyl-1H-indazol-4-yl)methyl)nicotinamide] the inhibition at 10 µM was 82%.
Compound `O=C(NCc1cccc2[nH]nc(Br)c12)c1ccc(OC(F)(F)F)c(F)c1` [Example 272, N-[(3-bromo-1H-indazol-4-yl)methyl]-3-fluoro-4-(trifluoromethoxy)-benzamide] has an inhibition at 10 µM of 59%.
Work on `O=C(NCc1c(F)ccc2[nH]ncc12)c1ccc(OC(F)(F)F)cc1` [Example 273, N-[(5-fluoro-1H-indazol-4-yl)methyl]-4-(trifluoromethoxy)-benzamide] yielded an inhibition at 10 µM of 93%.
`Cn1nnc2cccc(CNC(=O)c3ccc(OC(F)(F)F)c(F)c3)c21` [Example 274, 3-fluoro-N-[(1-methyl-1H-benzotriazol-7-yl)methyl]-4-(trifluoromethoxy)-benzamide] gave an inhibition at 10 µM of 93%.
With `Cn1nnc2cccc(CNC(=O)c3cnc(OC(F)F)c(F)c3)c21` [Example 275, 6-(difluoromethoxy)-5-fluoro-N-[(1-methyl-1H-benzotriazol-7-yl)methyl]pyridine-3-carboxamide] the inhibition at 10 µM was 82%.
Work on `COc1ccc2ncn(C)c2c1CNC(=O)c1ccc(OC(F)F)nc1` [Example 276, 6-(difluoromethoxy)-N-[(6-methoxy-l-methyl-1H-benzimidazol-7-yl)methyl]pyridine-3-carboxamide] yielded an inhibition at 10 µM of 88%.
With `COc1ccc2ncn(C)c2c1CNC(=O)c1ccc(OC(F)F)cc1F` [Example 277, 4-(difluoromethoxy)-2-fluoro-N-[(6-methoxy-1-methyl-1H-benzimidazol-7-yl)methyl]benzamide] the inhibition at 10 µM was 63%.
For `COc1ccc2ncn(C)c2c1CNC(=O)c1ccc(CC(F)(F)F)cc1` [Example 278, N-[(6-methoxy-1-methyl-1H-benzimidazol-7-yl)methyl]-4-(2,2,2-trifluoroethyl)-benzamide], the inhibition at 10 µM was 77%.
In the case of `COCc1ccc2ncn(C)c2c1CNC(=O)c1cc(F)c(OC)c(F)c1` [Example 279, 3,5-difluoro-4-methoxy-N-{[6-(methoxymethyl)-1-methyl-1H-benzimidazol-7-yl]methyl}benzamide], the inhibition at 10 µM was 88%.
`COCc1ccc2ncn(C)c2c1CNC(=O)c1ccc(C(F)(F)F)cc1` [Example 280, N-{[6-(methoxymethyl)-1-methyl-1H-benzimidazol-7-yl]methyl}-4-(trifluoromethyl)-benzamide] showed an inhibition at 10 µM of 75%.
Compound `COCc1ccc2ncn(C)c2c1CNC(=O)c1cnc(OC(F)F)c(F)c1` [Example 281, 6-(difluoromethoxy)-5-fluoro-N-{[6-(methoxymethyl)-1-methyl-lH-benzimidazol-7-yl]methyl}pyridine-3-carboxamide] has an inhibition at 10 µM of 82%.
In the case of `COCc1ccc2ncn(C)c2c1CNC(=O)c1csc(C(F)(F)F)c1` [Example 282, N-{[6-(methoxymethyl)-1-methyl-lH-benzimidazol-7-yl]methyl)-5-(trifluoromethyl)-thiophene-3-carboxamide], the inhibition at 10 µM was 76%.
`COCc1ccc2ncn(C)c2c1CNC(=O)c1ccc(OC(F)F)c(Cl)c1` [Example 283, 3-chloro-4-(difluoromethoxy)-N-{[6-(methoxymethyl)-1-methyl-1H-benzimidazol-7-yl]methyl}benzamide] gave an inhibition at 10 µM of 93%.
`COCc1ccc2ncn(C)c2c1CNC(=O)c1ccc(OC(F)(F)F)c(F)c1` [Example 284, 3-fluoro-N-{[6-(methoxymethyl)-1-methyl-1H-benzimidazol-7-yl]methyl}-4-(trifluoromethoxy)-benzamide] gave an inhibition at 10 µM of 95%.

System: NMDA receptor
Assay: not given
Details: continuous intravenous administration; cited from earlier work
For `CNC1(c2ccccc2Cl)CCCCC1=O` (stereo not drawn) [ketamine], the “depression symptom accompanying major depression and bipolar disorder” value is listed as “improves depression symptom accompanying major depression and bipolar disorder rapidly and in a sustained manner”.

Target: T2, NMDA receptor containing the NR2B subunit (Homo sapiens, UniProt Q13224)
T2 sequence (Q13224 27-1484, other chains not shown): as above
Assay: not given
Details: continuous intravenous administration; cited from earlier work
In the case of `C[C@@H]([C@@H](O)c1ccc(O)cc1)N1CCC(O)(c2ccccc2)CC1` [CP-101, 606], the treatment resistant-depression symptom is given as “significantly improves treatment resistant-depression symptom”.

Target: T3, NMDA receptor containing the NR2B subunit (Rattus norvegicus, UniProt Q00960)
T3 construct: host or cells: rodents, in vivo
T3 sequence (Q00960 27-1482, other chains not shown): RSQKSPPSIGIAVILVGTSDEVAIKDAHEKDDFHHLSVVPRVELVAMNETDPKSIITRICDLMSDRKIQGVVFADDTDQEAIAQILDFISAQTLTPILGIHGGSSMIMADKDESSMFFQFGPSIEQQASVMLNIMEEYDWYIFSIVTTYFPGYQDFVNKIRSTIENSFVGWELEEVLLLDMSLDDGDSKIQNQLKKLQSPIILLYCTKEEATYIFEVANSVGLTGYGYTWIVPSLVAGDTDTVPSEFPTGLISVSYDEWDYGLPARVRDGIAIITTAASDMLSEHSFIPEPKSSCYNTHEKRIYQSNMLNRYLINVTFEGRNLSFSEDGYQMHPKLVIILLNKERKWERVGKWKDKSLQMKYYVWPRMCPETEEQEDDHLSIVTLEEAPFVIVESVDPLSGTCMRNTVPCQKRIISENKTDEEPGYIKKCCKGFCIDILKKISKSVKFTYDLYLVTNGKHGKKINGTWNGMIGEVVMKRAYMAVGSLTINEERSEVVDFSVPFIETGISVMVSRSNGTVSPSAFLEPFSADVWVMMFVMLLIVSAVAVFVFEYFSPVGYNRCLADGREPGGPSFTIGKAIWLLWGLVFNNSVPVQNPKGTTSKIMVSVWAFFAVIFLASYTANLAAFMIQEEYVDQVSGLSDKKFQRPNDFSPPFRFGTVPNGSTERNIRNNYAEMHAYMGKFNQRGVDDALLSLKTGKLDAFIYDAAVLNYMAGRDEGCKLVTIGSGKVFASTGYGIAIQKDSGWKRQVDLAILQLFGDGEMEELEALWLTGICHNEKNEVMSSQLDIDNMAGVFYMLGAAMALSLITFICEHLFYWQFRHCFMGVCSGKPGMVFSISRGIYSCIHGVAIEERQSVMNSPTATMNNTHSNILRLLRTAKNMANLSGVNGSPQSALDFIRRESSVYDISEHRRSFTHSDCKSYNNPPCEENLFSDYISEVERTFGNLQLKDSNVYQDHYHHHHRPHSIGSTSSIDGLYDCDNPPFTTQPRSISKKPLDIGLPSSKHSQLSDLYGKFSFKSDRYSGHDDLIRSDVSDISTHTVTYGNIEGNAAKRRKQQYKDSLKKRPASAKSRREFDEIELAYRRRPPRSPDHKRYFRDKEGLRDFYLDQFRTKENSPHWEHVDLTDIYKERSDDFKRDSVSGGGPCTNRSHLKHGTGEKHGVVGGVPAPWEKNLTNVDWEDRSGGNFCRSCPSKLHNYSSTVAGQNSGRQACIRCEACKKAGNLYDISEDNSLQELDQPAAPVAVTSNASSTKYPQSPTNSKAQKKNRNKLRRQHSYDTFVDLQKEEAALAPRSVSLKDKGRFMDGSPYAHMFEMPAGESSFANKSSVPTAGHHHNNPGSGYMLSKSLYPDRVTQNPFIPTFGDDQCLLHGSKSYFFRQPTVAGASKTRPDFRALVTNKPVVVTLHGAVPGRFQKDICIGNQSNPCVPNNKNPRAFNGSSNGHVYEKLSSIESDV
Assay: not given
Details: rodents; cited from earlier work
In the case of `C[C@@H]([C@@H](O)c1ccc(O)cc1)N1CCC(O)(c2ccccc2)CC1` [CP-101, 606], the “number of occurrence and depth of cortical spreading depression” value is listed as “suppress the number of occurrence and the depth of cortical spreading depression”.
For `C[C@@H](CN1CCC(Cc2ccccc2)CC1)[C@@H](O)c1ccc(O)cc1` [Ro25-6981], the “number of occurrence and depth of cortical spreading depression” value is given as “suppress the number of occurrence and the depth of cortical spreading depression”.

Target: T2, NMDA receptor containing the NR2B subunit
Assay: not given
Details: in vivo; cited from earlier work
In the case of `CC(C(O)c1ccc(O)cc1)N1CCC(Cc2ccccc2)CC1` (stereo not drawn) [Ifenprodil], the pain sense threshold is listed as “pain sense threshold increases”.

System: NMDA receptor
Assay: not given
Details: in vivo; cited from earlier work
For `CC12CC3CC(C)(C1)CC(N)(C3)C2` [memantine], the “peripheral symptoms of dementia” value is listed as “partially improves peripheral symptoms of dementia”.
